Reference: ChEMBL document CHEMBL1201862, “PubChem BioAssay data set” (2004)
Active and inactive are the calls of the source.

Legend:
[1] = HIV-1 AD8 envelope cell-cell fusion blockers – cherry-pick, dose response (AID 652062); format: functional, cell-based;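 note: luciferase signal from cell-cell fusion driven by HIV-1 clade B AD8 Env; potency is for inhibitors of fusion seen as a drop in luminescence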
[2] = off-target signal loss in HeLa-CEM21 co-culture – HeLa F-luc CTL cells, cherry-picked, counter-screen for HIV-1 Env fusion inhibitor project, dose response (AID 652040); format: functional, cell-based;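 note: potency for signal decrease marking cytotoxic or nonspecific inhibition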
[3] = blockers of HIV-1 envelope-mediated cell-cell fusion – cherry-pick, dose response (AID 652057); format: functional, cell-based
[4] = blockers of HIV-1 ZM109 envelope-driven cell-cell fusion – HeLa effector, CEM target cells, luciferase, cherry-pick, dose response (AID 652058); format: functional, cell-based;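 note: luciferase signal from HIV-1 Env mediated cell-cell fusion of effector and target cells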
[5] = alpha-synuclein stem-loop luciferase translation blockers – H4 neuroglioma cells, luminescence, confirmation (AID 1988); format: functional, cell-based
[6] = luciferase reporter signal suppression in cells – H4 neuroglioma cells, luminescence, dose response (AID 1990); format: functional, cell-based
[7] = Luminescence Cell-Based Dose Response HTS to Identify Inhibitors of 5'UTR Stem-Loop Driven Prion Protein mRNA Translation in H4 Neuroglioblastoma Cells. [Related pubchem assays: 1827 (Project Summary), 1813 (Primary HTS)]; format: functional
[8] = biological target: T1, Calpain-2 catalytic subunit (Sus scrofa, UniProt P43367); assay: m-calpain protease blockers, concentration series – biochemical, fluorogenic peptide substrate, dose response (AID 1420); format: functional
T1 sequence (P43367 whole entry): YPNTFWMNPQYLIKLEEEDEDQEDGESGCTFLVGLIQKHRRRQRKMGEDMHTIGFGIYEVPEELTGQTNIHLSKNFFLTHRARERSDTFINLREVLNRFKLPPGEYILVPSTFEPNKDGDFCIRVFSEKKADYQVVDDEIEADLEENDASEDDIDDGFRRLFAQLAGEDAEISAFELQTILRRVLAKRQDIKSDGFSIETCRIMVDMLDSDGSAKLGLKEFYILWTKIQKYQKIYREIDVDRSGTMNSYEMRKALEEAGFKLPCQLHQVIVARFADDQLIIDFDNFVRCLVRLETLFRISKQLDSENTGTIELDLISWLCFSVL

[9] = HEK-293T viability loss after treatment – luminescence, T-cell screen hits, cytotoxicity control for TCR NF-kB inhibitor project, dose response (AID 489026); format: functional, cell-based;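 note: cells exposed to compound about 14 hours before the viability readout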
H4 = assay: Luminescence Cell-Based Dose Response HTS to Identify Activators of 5'UTR Stem-Loop Driven Prion Protein mRNA Translation in H4 Neuroglioblastoma Cells. [Related pubchem assays: 1829 (Project Summary), 1814 (Primary HTS)]; format: functional; details: Homo sapiens
[10] = biological target: T2, Oxysterols receptor LXR-beta (Homo sapiens, UniProt P55055); format: functional, cell-based;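 note: agonist activity at LXR measured by a cell-based luminescence readout across a dose range, run as a counterscreen for daf-12 agonists; HEK293 cells with Gal4-LXR fusion and GAL4-driven luciferase reporter; potency for activation of Gal4-LXR reporter so compounds are agonists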
T2 sequence (P55055 whole entry): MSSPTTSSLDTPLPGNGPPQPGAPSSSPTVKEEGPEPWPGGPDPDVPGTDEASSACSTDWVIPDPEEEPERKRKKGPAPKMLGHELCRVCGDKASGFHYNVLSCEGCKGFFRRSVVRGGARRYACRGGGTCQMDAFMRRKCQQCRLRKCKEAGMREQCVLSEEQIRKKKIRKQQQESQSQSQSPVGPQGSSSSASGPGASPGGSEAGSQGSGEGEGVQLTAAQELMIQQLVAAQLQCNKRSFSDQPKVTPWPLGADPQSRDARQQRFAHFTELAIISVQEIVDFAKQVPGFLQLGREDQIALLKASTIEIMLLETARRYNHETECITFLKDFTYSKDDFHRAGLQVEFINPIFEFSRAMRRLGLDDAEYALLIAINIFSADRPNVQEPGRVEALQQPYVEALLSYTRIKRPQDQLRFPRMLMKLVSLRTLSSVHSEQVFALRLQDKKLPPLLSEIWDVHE

[11] = Luminescence Cell-Based Dose Response HTS to Identify Activators of Luciferase Translation or Activity in H4 […] Cells. [Related pubchem assays: 1829 (Project Summary), 1814 (Primary HTS)]; format: functional
[12] = biological target: T3, Methionyl-tRNA synthetase, putative (Trypanosoma brucei brucei, UniProt Q38C91); format: functional, Trypanosoma brucei brucei strain 927/4 GUTat10.1
T3 sequence (Q38C91 whole entry): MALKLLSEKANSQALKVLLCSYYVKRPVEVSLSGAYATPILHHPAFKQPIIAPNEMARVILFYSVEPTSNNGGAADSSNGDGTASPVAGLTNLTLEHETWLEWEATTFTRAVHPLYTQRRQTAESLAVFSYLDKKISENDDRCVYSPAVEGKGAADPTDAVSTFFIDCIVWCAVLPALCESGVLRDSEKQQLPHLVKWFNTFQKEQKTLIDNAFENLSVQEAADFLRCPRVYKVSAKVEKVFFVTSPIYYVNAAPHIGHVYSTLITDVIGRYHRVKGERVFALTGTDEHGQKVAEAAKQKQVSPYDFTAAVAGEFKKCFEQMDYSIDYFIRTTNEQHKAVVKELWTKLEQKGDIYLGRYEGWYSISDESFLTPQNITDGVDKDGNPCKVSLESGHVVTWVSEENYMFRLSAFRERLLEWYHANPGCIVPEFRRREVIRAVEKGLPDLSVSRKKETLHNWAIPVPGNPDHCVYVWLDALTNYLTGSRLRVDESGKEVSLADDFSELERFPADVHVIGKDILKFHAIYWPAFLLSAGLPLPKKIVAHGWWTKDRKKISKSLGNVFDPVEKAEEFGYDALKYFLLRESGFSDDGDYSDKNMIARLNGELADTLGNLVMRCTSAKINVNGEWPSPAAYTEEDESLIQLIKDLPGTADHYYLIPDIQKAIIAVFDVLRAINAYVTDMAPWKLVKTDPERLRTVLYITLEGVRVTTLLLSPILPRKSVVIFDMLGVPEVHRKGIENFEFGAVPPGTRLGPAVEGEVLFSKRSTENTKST

[13] = biological target: T3, Methionyl-tRNA synthetase, putative; format: functional, Trypanosoma brucei brucei strain 927/4 GUTat10.1; remark: listed apart in the source
[14] = Counterscreen for inhibitors of Trypanosoma brucei methionyl tRNA synthetase (MetRS): Luminescence-based cell-based high throughput dose response assay to identify compounds that are cytotoxic to Jurkat human T lymphocyte cells.; format: functional
[15] = blockers of CRF-binding protein–CRF-R2 complex – cell-based, uHTS hits, 384-well, dose response (AID 651639); format: functional, Homo sapiens; details: read-out: IC50_Mean
[16] = biological target: T4, Corticotropin-releasing factor receptor 2/Corticotropin-releasing factor-binding protein (Homo sapiens, UniProt P24387+Q13324); assay: activators of CRF receptor 2 with binding protein – uHTS hits, confirmation (AID 602473); format: functional; details: read-out: EC50_Mean
T4 sequence (Q13324 whole entry): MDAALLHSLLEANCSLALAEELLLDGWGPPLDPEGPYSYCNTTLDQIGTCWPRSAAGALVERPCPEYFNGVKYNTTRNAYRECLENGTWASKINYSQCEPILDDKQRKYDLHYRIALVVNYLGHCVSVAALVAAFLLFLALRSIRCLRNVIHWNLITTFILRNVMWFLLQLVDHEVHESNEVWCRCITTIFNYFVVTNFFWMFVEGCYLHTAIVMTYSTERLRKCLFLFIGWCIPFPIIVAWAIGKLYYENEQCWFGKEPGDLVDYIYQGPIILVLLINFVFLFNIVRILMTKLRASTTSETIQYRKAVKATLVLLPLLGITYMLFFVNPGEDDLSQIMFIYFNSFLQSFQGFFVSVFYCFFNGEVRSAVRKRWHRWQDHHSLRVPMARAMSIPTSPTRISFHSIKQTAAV
T4 sequence (P24387 whole entry): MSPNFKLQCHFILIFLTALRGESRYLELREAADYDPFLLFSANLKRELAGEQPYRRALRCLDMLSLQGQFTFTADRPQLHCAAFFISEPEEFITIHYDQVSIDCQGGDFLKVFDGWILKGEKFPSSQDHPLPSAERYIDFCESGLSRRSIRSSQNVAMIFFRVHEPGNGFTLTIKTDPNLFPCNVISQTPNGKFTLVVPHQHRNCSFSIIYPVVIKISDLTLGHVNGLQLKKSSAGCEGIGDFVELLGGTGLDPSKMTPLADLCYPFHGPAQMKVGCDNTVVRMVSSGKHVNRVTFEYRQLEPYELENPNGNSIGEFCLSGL

[17] = biological target: T4, Corticotropin-releasing factor receptor 2/Corticotropin-releasing factor-binding protein; assay: Dose Response confirmation of uHTS hits for small molecule antagonists of the CRF-binding protein and CRF-R2 receptor complex.; format: functional; details: read-out: IC50_Mean
[18] = NIH-3T3 fibroblast cytotoxicity, dose response, cytotoxicity control, cell-based, fluorescence, Alamar Blue, secondary assay (AID 2327); format: functional;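 note: NIH-3T3 mouse fibroblasts cultured with fluconazole at 8 µg/mL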
[19] = biological target: T5, Microphthalmia-associated transcription factor (Homo sapiens, UniProt O75030); assay: reducers of TRPM1 reporter luminescence, concentration series – cell-based, SK-MEL-5, cherry-picked, set 3, MITF inhibitor project, dose response (AID 493073); format: functional;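 note: SK-MEL-5 melanoma cells with luciferase driven by the MITF target TRPM1 promoter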
T5 sequence (O75030 whole entry): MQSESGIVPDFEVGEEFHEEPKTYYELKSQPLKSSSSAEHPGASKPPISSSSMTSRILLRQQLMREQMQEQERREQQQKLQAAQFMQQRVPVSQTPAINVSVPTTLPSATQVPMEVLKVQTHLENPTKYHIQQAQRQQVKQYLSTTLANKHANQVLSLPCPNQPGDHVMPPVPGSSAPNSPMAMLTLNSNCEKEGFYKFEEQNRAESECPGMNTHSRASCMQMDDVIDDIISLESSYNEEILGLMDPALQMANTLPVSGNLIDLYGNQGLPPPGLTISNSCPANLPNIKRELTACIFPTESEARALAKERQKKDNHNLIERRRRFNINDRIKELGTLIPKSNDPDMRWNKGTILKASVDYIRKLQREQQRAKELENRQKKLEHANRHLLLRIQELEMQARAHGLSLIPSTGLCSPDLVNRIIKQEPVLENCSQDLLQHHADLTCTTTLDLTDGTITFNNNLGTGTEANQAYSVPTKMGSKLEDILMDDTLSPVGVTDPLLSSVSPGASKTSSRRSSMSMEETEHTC

[20] = fluconazole-exposed Candida albicans growth modulators – fluorescence, retest, confirmation (AID 2467); format: functional, cell-based

Cc1ccc(C(c2nnnn2CS(=O)(=O)c2ccc(C)cc2)N2CCCC2)cc1 (stereo not given)
AC50 [1]: 2.35 µM (active) | AC50 [2]: 3.97 µM (active) | AC50 [3]: 3.22 µM (active) | AC50 [4]: 3.55 µM (active)

O=C(COc1ccc(C(=O)c2ccccc2)cc1)NCc1ccc(F)cc1
EC50 [5]: 7.25 µM (active) | EC50 [6]: > 120 µM (not active) | EC50 [7]: 10 µM (active) | IC50 [8]: > 50 µM (not active) | IC50 [9]: > 80 µM (inactive)

N=C1c2ccccc2CN1CC(=O)c1ccccc1
EC50 (H4): 8 µM (active) | EC50 [10]: > 67.6 µM (inactive) | EC50 [11]: 10.6 µM (active)

O=C(NCC(O)COc1ccc([N+](=O)[O-])cc1)Nc1ccccc1 (stereo not given)
IC50 [12]: 9.32 µM (active) | IC50 [13]: 15.6 µM (inactive) | IC50 [14]: 83.4 µM (inactive)

Cc1nc2ccccc2n1CCOc1ccc([N+](=O)[O-])cc1
IC50 [15]: 0.972 µM (active) | EC50 [16]: > 53 µM (inactive) | IC50 [17]: < 0.368 µM (active)

Cc1ccc(-c2cc(-c3ccc(C)cc3)[n+](C)o2)cc1.[O-][Cl+3]([O-])([O-])[O-]
EC50 [18]: > 160 µM (inactive) | AC50 [19]: 8.24 µM (active) | EC50 [20]: > 38 µM (not active)

COCCNC(=O)/C(C#N)=C/c1cc(C)n(C2CCCCC2)c1C
EC50 [10]: > 67.5 µM (inactive)

Cc1ccc(C)c(S(=O)(=O)C(C#N)c2nc3ccccc3nc2N2CCOCC2)c1 (stereo not given)
IC50 [15]: > 20 µM (inactive) | EC50 [16]: 35.8 µM (active) | IC50 [17]: 39.8 µM (active)

COc1ccccc1CN(C)C(=O)C(c1ccccc1)c1ccccc1
IC50 [15]: > 20 µM (inactive) | EC50 [16]: > 53 µM (inactive) | IC50 [17]: 8.1 µM (active)

O=C(NCC(=O)N1CCN(c2ncccn2)CC1)c1ccccc1OC(F)F
AC50 [1]: 13.1 µM (active) | AC50 [2]: 3.72 µM (active) | AC50 [3]: 2.79 µM (active) | AC50 [4]: 2.86 µM (active)

COc1ccccc1-c1c[nH]c(C(O)c2cc(Cl)cc(Cl)c2)n1 (stereo not given)
IC50 [12]: 2.38 µM (active) | IC50 [13]: 3.26 µM (active) | IC50 [14]: 83.3 µM (inactive)

C[C@H]1CN([C@@H](C)CO)C(=O)c2c(c3ccccc3n2C)-c2ccccc2CO[C@H]1CN(C)C(=O)Nc1cccc(F)c1
AC50 [1]: 2.88 µM (active) | AC50 [2]: 0.362 µM (active) | AC50 [3]: < 0.26 µM (active) | AC50 [4]: < 0.26 µM (active)

O=C(CCC(=O)Nc1cccc([N+](=O)[O-])c1)N/N=C/c1cccs1
IC50 [12]: 5.26 µM (active) | IC50 [13]: 8.34 µM (active) | IC50 [14]: 83.3 µM (inactive)

C/C(=N\c1ccccc1)c1sc2ccccc2c1O
EC50 (H4): 0.153 µM (active) | EC50 [10]: > 67.6 µM (inactive) | EC50 [11]: 2.22 µM (active)
